Measurements as given in ChEMBL document CHEMBL1201862, “PubChem BioAssay data set” (2004).
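All cell lines were grown in 96-well plates and treated with compound for 48 hours. GI50 = concentration required for 50% inhibition of growth.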 Activity calls are given as the source filed them. Rule as the data show it: active = GI50 up to about 1.1 µM and inactive = higher.

Key:
Experiment in all cases: NCI anticancer screen, dose series, 48 h
[1] = system: HCT-15
[2] = system: UACC-257
[3] = system: BT-549
[4] = system: OVCAR-8
[5] = system: SK-OV-3
[6] = system: OVCAR-4
[7] = system: T47D
[8] = system: EKVX
[9] = system: SK-MEL-2
[10] = system: LOX IMVI
[11] = system: NCI-H460
[12] = system: HCC 2998
[13] = system: RPMI-8226
[14] = system: NCI-H226
[15] = system: MDA-MB-435
[16] = system: A549
[17] = system: HOP-62
[18] = system: OVCAR-3
[19] = system: UACC-62
[20] = system: MDA-N

CCOC(=O)/C(=C\NCc1ccc2c(c1)OCO2)c1nc2ccccc2[nH]1
GI50 [1]: 44.9 µM
GI50 [2]: 64.6 µM (inactive)
GI50 [3]: 83.4 µM (inactive)
GI50 [4]: 43 µM (inactive)
GI50 [5]: > 100 µM (inactive)
GI50 [6]: 57.3 µM (inactive)
GI50 [7]: 35.9 µM (inactive)
GI50 [8]: > 100 µM (inactive)
GI50 [9]: 48.4 µM (inactive)
GI50 [10]: 42.2 µM (inactive)
GI50 [11]: 24.9 µM (inactive)
GI50 [12]: 42.7 µM (inactive)
GI50 [13]: 25.5 µM (inactive)
GI50 [14]: > 100 µM (inactive)
GI50 [15]: 48.6 µM (inactive)
GI50 [16]: 35.4 µM (inactive)
GI50 [17]: 71.3 µM (inactive)
GI50 [18]: 43 µM (inactive)
GI50 [19]: 26.9 µM (inactive)
GI50 [20]: 75 µM (inactive)
